The subject of one experiment is PaLPMO9H. Put plainly: AA7-LPMO synergy assay with PaLPMO9H on PASC or Avicel (HPAEC-PAD). In kind it is biochemical, Podospora anserina.
Experiment [1] addresses T1, MoChiO7A, Magnaporthe (anamorph Pyricularia) oryzae 70-15, SEQ ID NO: 21 (Table 2: SEQ ID NO: 35) (Pyricularia oryzae, UniProt G4NAH7). The conditions noted are these: oxidase assay, 50 mM NaOAc pH 5.2, MoChiO7A.
Experiment [2] concerns the target T2, FgChiO7B, Fusarium graminearum, SEQ ID NO: 20 (Table 2: SEQ ID NO: 33) (Fusarium graminearum, UniProt A0ACM8RFH6). The conditions noted are these: oxidase assay, 50 mM NaOAc pH 5.2, FgChiO7B.
Experiment [3] concerns the target T1, MoChiO7A, Magnaporthe (anamorph Pyricularia) oryzae 70-15, SEQ ID NO: 21 (Table 2: SEQ ID NO: 35). The settings on record: dehydrogenase assay, 0.1 mM DCIP, 0.1 μM enzyme, 50 mM HEPES pH 7.0, MoChiO7A.
Experiment [4] addresses T2, FgChiO7B, Fusarium graminearum, SEQ ID NO: 20 (Table 2: SEQ ID NO: 33). The settings on record: dehydrogenase assay, 0.1 mM DCIP, 0.1 μM enzyme, 50 mM HEPES pH 7.0, FgChiO7B.
In experiment [5] the target is T3, PsAA7A, Phytophthora sojae, SEQ ID NO: 7 (Table 2: SEQ ID NO: 37) (Phytophthora sojae, UniProt G4YI39).
T3 sequence (G4YI39 23-504): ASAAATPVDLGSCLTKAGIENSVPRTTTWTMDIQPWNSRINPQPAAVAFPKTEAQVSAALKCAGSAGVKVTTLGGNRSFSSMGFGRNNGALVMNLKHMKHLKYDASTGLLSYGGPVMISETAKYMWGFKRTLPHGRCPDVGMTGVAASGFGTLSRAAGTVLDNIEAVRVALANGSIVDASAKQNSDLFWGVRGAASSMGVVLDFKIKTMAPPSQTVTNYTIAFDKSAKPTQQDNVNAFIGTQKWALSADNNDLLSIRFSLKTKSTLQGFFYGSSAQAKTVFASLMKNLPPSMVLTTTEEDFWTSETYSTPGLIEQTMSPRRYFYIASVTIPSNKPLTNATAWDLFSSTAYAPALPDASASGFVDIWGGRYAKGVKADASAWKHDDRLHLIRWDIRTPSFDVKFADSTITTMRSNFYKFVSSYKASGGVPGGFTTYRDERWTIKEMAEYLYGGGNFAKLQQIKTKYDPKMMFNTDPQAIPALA
In kind it is biochemical.

Experiment [6] deals with T3, PsAA7A, Phytophthora sojae, SEQ ID NO: 7 (Table 2: SEQ ID NO: 37). It counts as biochemical. This is another data set of the same source.
Experiment [7] addresses T4, FgCelDH7C, Fusarium graminearum PH-1, SEQ ID NO: 1 (Table 2: SEQ ID NO: 31) (Fusarium graminearum, UniProt I1RWY4). The conditions noted are these: dehydrogenase assay, 0.1 mM DCIP, 0.1 μM enzyme, 50 mM HEPES pH 7.0, FgCelDH7C.
Experiment [8] has as its target T4, FgCelDH7C, Fusarium graminearum PH-1, SEQ ID NO: 1 (Table 2: SEQ ID NO: 31). In kind it is biochemical. The settings on record: oxidase assay, 20 mM cellobiose; for V0/E: estimated.
Experiment [9] relates to FgAA7D, Fusarium graminearum PH-1, SEQ ID NO: 113. It counts as biochemical. The conditions noted are these: 150 nM enzyme, 10 mM cellobiose.
The format of experiment [10] is biochemical. The settings on record: GalA; V0/E values.

Entries after “also recorded” stand apart in the source; their conditions may differ. Where two headings read alike, the source gives them in different places.

The values that follow come from US12630806B2 (priority 2020, dated 2026).

As a reminder, the kcat is the number of substrate molecules converted per active site and unit of time at saturation.

Turning to `O=C1C=CC(=Nc2cc(Cl)c(O)c(Cl)c2)C=C1` [DCIP, 2,6-dichlorophenolindophenol], the “synergy with PaLPMO9H: released cello-oligosaccharides from PASC” value in the experiment with PaLPMO9H is on record as “inhibited the observed synergy”.
Turning to `CC(=O)N[C@H]1C(O)O[C@H](CO)[C@H](O)[C@@H]1O` (some centres unmarked) [GalNAc], the kcat in [1] turned out to be 3.67 ± 0.06 s⁻¹.
For the molecule `CC(=O)N[C@H]1[C@H](O[C@H]2[C@H](O)[C@@H](NC(C)=O)C(O)O[C@@H]2CO)O[C@H](CO)[C@@H](O)[C@@H]1O` (some centres unmarked) [Chitobiose, chitobiose], the kcat is 2.27 ± 0.03 s⁻¹ in experiment [2], 4.37 ± 0.12 s⁻¹ in [1], 22.4 ± 0.5 s⁻¹ in experiment [3] and 29.3 ± 0.41 s⁻¹ in experiment [4].
On to `O=C(O)[C@H]1OC(O)[C@H](O)[C@@H](O)[C@H]1O` (some centres unmarked) [GalA, galacturonic acid], for which the “dehydrogenase activity (V0/E)” value in experiment [5] was 6.4 s⁻¹. Also, in [6], the V0/E is reported as 1.7E−4^d s^−1 and the “oxidase activity estimated from the linear segments after the initial delayed burst” value is reported as 1.7±0.6 ×10^−4 s^−1.
On to `OC[C@H]1O[C@@H](O[C@H]2[C@H](O)[C@@H](O)C(O)O[C@@H]2CO)[C@H](O)[C@@H](O)[C@@H]1O` (some centres unmarked) [Cellobiose, cellobiose], for which the kcat in experiment [7] turned out to be 30.8 ± 0.81 s⁻¹. Further, the entries for the “normalized rate (slope of linear region/E), initial burst” value in experiment [8] (150 μM enzyme) and in experiment [8] (500 μM enzyme) were 0.00029 s⁻¹ and 0.00013 s⁻¹, respectively. Further, the “reaction rate, second phase” value in experiment [8] (150 μM enzyme) was found to be 7e-05 s⁻¹; in experiment [8] (500 μM enzyme), 4.1e-05 s⁻¹. Moreover, the V0/E entry is given as “(2.93E−4^c) s^−1” in [8] (150 uM enzyme) and 1.29E−4^b s^−1 in experiment [8] (500 uM enzyme). The Estimated oxidase activity in experiment [9] was 0.001 s⁻¹.
For the molecule `OC[C@H]1O[C@@H](O[C@H]2[C@H](O)[C@@H](O)[C@H](O[C@H]3[C@H](O)[C@@H](O)[C@H](O[C@H]4[C@H](O)[C@@H](O)C(O)O[C@@H]4CO)O[C@@H]3CO)O[C@@H]2CO)[C@H](O)[C@@H](O)[C@@H]1O` (some centres unmarked) [Cellotetraose, cellotetraose], in [7], the kcat worked out at 39.2 ± 0.76 s⁻¹.
Turning to `CC(=O)N[C@H]1C(O)O[C@H](CO)[C@@H](O)[C@@H]1O` (some centres unmarked) [GlcNAc], the kcat in experiment [2] was 6.76 ± 0.31 s⁻¹; in experiment [1], 3.8 ± 0.07 s⁻¹.
For `CC(=O)N[C@H]1[C@H](O[C@H]2[C@H](O)[C@@H](NC(C)=O)C(O)O[C@@H]2CO)O[C@H](CO)[C@@H](O[C@@H]2O[C@H](CO)[C@@H](O)[C@H](O)[C@H]2NC(C)=O)[C@@H]1O` (some centres unmarked) [Chitotriose, chitotriose], in that order: 6.14 ± 0.29 s⁻¹ and 3.71 ± 0.09 s⁻¹.
For the molecule `OC[C@H]1O[C@@H](O[C@H]2[C@H](O)[C@@H](O)[C@H](O[C@H]3[C@H](O)[C@@H](O)C(O)O[C@@H]3CO)O[C@@H]2CO)[C@H](O)[C@@H](O)[C@@H]1O` (some centres unmarked) [Cellotriose, cellotriose], the kcat in experiment [7] is 36.1 ± 0.74 s⁻¹.

B1: HRP: horseradish peroxidase, captures H2O2 (protein, UniProt P00433 31-338, looked up)
Peroxidase C1A: QLTPTFYDNSCPNVSNIVRDTIVNELRSDPRIAASILRLHFHDCFVNGCDASILLDNTTSFRTEKDAFGNANSARGFPVIDRMKAAVESACPRTVSCADLLTIAAQQSVTLAGGPSWRVPLGRRDSLQAFLDLANANLPAPFFTLPQLKDSFRNVGLNRSSDLVALSGGHTFGKNQCRFIMDRLYNFSNTGLPDPTLNTTYLQTLRGLCPLNGNLSALVDFDLRTPTIFDNKYYVNLEEQKGLIQSDQELFSSPNATDTIPLVRSFANSTQTFFNAFVEAMDRMGNITPLTGTQGQIRLNCRVVNSNS
Regarding B1, the “effect of additive on PaLPMO9H-FgCelDH7C synergy / LPMO activity” value with PaLPMO9H (Avicel, 18 h at 35° C., HRP or SOD added) is given as “inhibitory of the LPMO activity; also recorded: abolished the activity”.

B2: PsAA7A: AA7 clade IIb enzyme from Phytophthora sojae, active on glucuronic and galacturonic acid (protein, listed as Phytophthora sojae)
chain: MVSSASSAIFALCSLIAAQSGLASAAATPVDLGSCLTKAGIENSVPRTTTWTMDIQPWNSRINPQPAAVAFPKTEAQVSAALKCAGSAGVKVTTLGGNRSFSSMGFGRNNGALVMNLKHMKHLKYDASTGLLSYGGPVMISETAKYMWGFKRTLPHGRCPDVGMTGVAASGFGTLSRAAGTVLDNIEAVRVALANGSIVDASAKQNSDLFWGVRGAASSMGVVLDFKIKTMAPPSQTVTNYTIAFDKSAKPTQQDNVNAFIGTQKWALSADNNDLLSIRFSLKTKSTLQGFFYGSSAQAKTVFASLMKNLPPSMVLTTTEEDFWTSETYSTPGLIEQTMSPRRYFYIASVTIPSNKPLTNATAWDLFSSTAYAPALPDASASGFVDIWGGRYAKGVKADASAWKHDDRLHLIRWDIRTPSFDVKFADSTITTMRSNFYKFVSSYKASGGVPGGFTTYRDERWTIKEMAEYLYGGGNFAKLQQIKTKYDPKMMFNTDPQAIPALA
modifications: peptide (1)..(504) PsAA7A from Phytophthora sojae - an AA7 enzyme belonging to clade IIb
For B2, the “synergy to LPMO catalyzed degradation of avicel” value with PaLPMO9H (Avicel 0.5% (w/v), 35° C., 24 h, PaLPMO9H, AA7 with its substrate (cellotetraose or galacturonic acid 0.8 mM)) is reported as “does not (or does only with a far lower extent) confer synergy”. Further, the dehydrogenase/oxidase ratio result in experiment [10] is reported as “about 4×10^4”.
